According to ChEMBL document CHEMBL1649140, “Accelerated metabolism of voriconazole and its partial reversal by cimetidine” (Antimicrob Agents Chemother, 2009):
Converted amounts (≈) assume the structure as drawn.

Key:
Aspergillus ustus = assay: Antifungal activity against Aspergillus ustus; assay type: functional
[1] = Cmin in patient with invasive pulmonary aspergillosis at 9.2 mg/kg, iv administered every 12 hrs measured after 8 days; assay type: ADME, organism-based; design: dose 9.2 mg/kg, route intravenous; details: human, in vivo, read-out: Cmin

Compound: C[C@@H](c1ncncc1F)[C@](O)(Cn1cncn1)c1ccc(F)cc1F [VORICONAZOLE]
- MIC (Aspergillus ustus): 4 µg/mL (≈ 11.5 µM)
- concentration at 192 h [1]: 1170 ng/mL
